Test results: patent US8674113B2, “Compounds” (Boehringer Ingelheim International GmbH, priority 2010, dated 2014)
Read-outs that look alike come from different tables or passages of the source.

Legend:
[1] = target: recombinant human mPGES-1 (Homo sapiens (Human), UniProt O14684); experiment: mPGES-1 enzyme assay (HTRF detection of PGE2); assay type: biochemical
In short: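 Microsomes from E. coli expressing recombinant human mPGES-1 (~0.5 μg protein/well) in 0.1 M phosphate pH 7.4 with 2.5 mM GSH, pre-incubated with compound 25 min at room temperature. PGH2 (2 μM final) added, reaction stopped with FeCl2 after 60 s; PGE2 quantified by HTRF (665/620 ratio) against a calibration curve, IC50 by nonlinear regression after background subtraction.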

mPGES-1 in A549 cells = mPGES-1 in A549 cells (Homo sapiens (Human), UniProt O14684); experiment: A549 cell-based assay (PGE2 formation, 50% human serum)
In short: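 A549 cells in F-12K with 50% human serum were stimulated 20-24 h with 5 ng/ml IL-1β and 10 nM arachidonic acid in presence of compound or vehicle. PGE2 in the cell-free medium was measured by HTRF, normalised to vehicle (100%). IC50 from 6-8 point titrations.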

[2] = recombinant human mPGES-1 microsomes, PGH2 2 μM, 60 seconds, read-out: mPGES-1 inhibitory effect IC50 in the enzyme assay
[3] = IL-1β 5 ng/ml, 10 nM arachidonic acid, 20-24 h, read-out: mPGES-1 inhibitory effect IC50 in the cell assay

mPGES-1 in A549 cells, sequence (O14684 whole entry): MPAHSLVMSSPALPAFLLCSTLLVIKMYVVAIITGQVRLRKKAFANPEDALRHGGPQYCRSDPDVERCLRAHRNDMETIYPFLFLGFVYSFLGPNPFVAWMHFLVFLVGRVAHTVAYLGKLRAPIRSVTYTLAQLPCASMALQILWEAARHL
recombinant human mPGES-1, sequence (O14684 whole entry): as above

Row | IC50 [1, 2] | IC50 (mPGES-1 in A549 cells; [3]) | IC50 ([1]; Table C comparison of selected benzimidazoles, read-out: Enzym IC50) | IC50 (mPGES-1 in A549 cells; Table C comparison of selected benzimidazoles, read-out: Cell IC50) | SMILES
1 | 3 nM | 7 nM | – | – | Cn1c(Nc2c(Cl)ccc(CNC(=O)C(C)(C)C)c2Cl)nc2cc(C(=O)NCCCC(F)(F)F)c(N3CCC(F)(F)C3)cc21 [Example 46]
2 | 3 nM | 8 nM | – | – | Cc1nc2c(s1)CN(c1cc3c(cc1C(=O)NCC(F)(F)F)nc(Nc1c(Cl)ccc(CNC(=O)C(C)(C)C)c1Cl)n3C)C2 [Example 33]
3 | 3 nM | 3 nM | – | – | Cn1c(Nc2c(Cl)ccc(CNC(=O)C(C)(C)C)c2Cl)nc2cc(C(=O)Nc3nc(C(F)(F)F)cs3)c(N3CCC(C(F)(F)F)CC3)cc21 [Example 161]
4 | 4 nM | 12 nM | – | – | CN1CCN(c2cc3c(cc2C(=O)N[C@H]2CC[C@H](C(F)(F)F)CC2)nc(Nc2c(Cl)ccc(CNC(=O)C(C)(C)C)c2Cl)n3C)CC1=O [Example 25]
5 | 3.9 nM | 1 nM | – | – | Cn1c(Nc2c(Cl)ccc(CNC(=O)C(C)(C)F)c2Cl)nc2cc(C(=O)NC3CC(F)(F)C3)c(N3CCC(C(F)(F)F)CC3)cc21 [Example 256]
6 | 2 nM | 7 nM | – | – | Cn1c(Nc2c(Cl)ccc(CNC(=O)C(C)(C)C)c2Cl)nc2cc(C(=O)N[C@H]3CC[C@H](C(F)(F)F)CC3)c(N3CCS(=O)(=O)CC3)cc21 [Example 130]
7 | 5 nM | 6.5 nM | – | – | CC(NC(=O)c1cc2nc(Nc3c(Cl)ccc(CNC(=O)C(C)(C)C)c3Cl)n(C)c2cc1N1CCC(F)(F)C1)c1cccs1 (stereo not drawn) [Example 36]
8 | 1 nM | < 1 nM | – | – | Cn1c(Nc2c(Cl)ccc(CNC(=O)C(C)(C)C)c2Cl)nc2cc(C(=O)Nc3ccc(Cl)c(F)c3)c(N3CCC(C(F)(F)F)CC3)cc21 [Example 56]
9 | 3 nM | 17 nM | – | – | Cn1c(Nc2c(Cl)ccc(CNC(=O)C(C)(C)C)c2Cl)nc2cc(C(=O)N[C@H]3CC[C@H](C(F)(F)F)CC3)c(N3CC4(COC4)C3)cc21 [Example 93]
10 | 3 nM | < 1 nM | – | – | Cn1c(Nc2c(Cl)ccc(CNC(=O)C(C)(C)C)c2Cl)nc2cc(C(=O)Nc3ccc(OC(F)(F)F)cc3)c(N3CC[C@H](F)C3)cc21 [Example 139]
11 | 4 nM | 1 nM | – | – | Cn1c(Nc2c(Cl)ccc(CNC(=O)C(C)(C)C)c2Cl)nc2cc(C(=O)NCC(F)(F)C(F)(F)F)c(N3CCOCC3)cc21 [Example 68]
12 | 3 nM | 1 nM | – | – | Cn1c(Nc2c(Cl)ccc(CNC(=O)C(C)(C)C)c2Cl)nc2cc(C(=O)N[C@H]3CC[C@H](C(F)(F)F)CC3)c(N3CCC(O)(C(F)(F)F)CC3)cc21 [Example 82]
13 | 1 nM | 1 nM | – | – | Cn1c(Nc2c(Cl)ccc(CNC(=O)C(C)(C)C)c2Cl)nc2cc(C(=O)NC3CCC(F)(F)CC3)c(N3CCC(C(F)(F)F)CC3)cc21 [Example 60]

More lines, now with the values behind:

Row | SMILES | IC50 [1, 2] | IC50 (mPGES-1 in A549 cells; [3]) | IC50 ([1]; Table C comparison of selected benzimidazoles, read-out: Enzym IC50) | IC50 (mPGES-1 in A549 cells; Table C comparison of selected benzimidazoles, read-out: Cell IC50)
14 | CC(O)CN(C)c1cc2c(cc1C(=O)N[C@H]1CC[C@H](C(F)(F)F)CC1)nc(Nc1c(Cl)ccc(CNC(=O)C(C)(C)C)c1Cl)n2C (stereo partly drawn) [Example 106] | 2 nM | < 1 nM | – | –
15 | Cn1ccnc1CNc1cc2c(cc1C(=O)N[C@H]1CC[C@H](C(F)(F)F)CC1)nc(Nc1c(Cl)ccc(CNC(=O)C(C)(C)C)c1Cl)n2C [Example 113] | 8 nM | 62 nM | – | –
16 | Cn1c(Nc2cc(CNC(=O)C(C)(C)C)ccc2Cl)nc2cc(C(=O)NCC3CC3)c(OCC(F)F)cc21 [[drawing 52] of WO 2010/100249, reference compound] | – | – | 2 nM | > 200 nM
17 | Cc1c(N2CC3CC3C2)c(C(=O)N[C@H]2CC[C@H](C(F)(F)F)CC2)cc2nc(Nc3c(Cl)ccc(CNC(=O)C(C)(C)C)c3Cl)n(C)c12 (stereo partly drawn) [Example 144, N-(trans-4-Trifluoromethyl-cyclohexyl)-2-{2,6-dichloro-3-[(2,2-dimethyl-propionylamino)-methyl]-phenylamino}-6-[3-aza-bicyclo[3.1.0]hex-3-yl]-1,7-dimethyl-1H-benzimidazole-5-carboxylic acid amide] | 5 nM | 1 nM | – | –
18 | Cn1c(Nc2c(Cl)ccc(CNC(=O)C3(C)CC3)c2Cl)nc2cc(C(=O)Nc3ccc(OC(F)(F)F)cc3)c(N3CC[C@@H](F)C3)cc21 [Example 156] | 2 nM | 2 nM | – | –
19 | Cn1c(Nc2c(Cl)ccc(CNC(=O)C(C)(C)C)c2Cl)nc2cc(C(=O)NCCC(F)(F)F)c(N3CCCC(C(F)(F)F)C3)cc21 (stereo not drawn) [Example 81, N-(3,3,3-Trifluoropropyl)-2-{2,6-dichloro-3-[(2,2-dimethyl-propionylamino)-methyl]-phenylamino}-6-[3-trifluoromethyl-piperidinyl]-1-methyl-1H-benzimidazole-5-carboxylic acid amide] | 4 nM | < 1 nM | – | –
20 | CC(C)(C)C(=O)NCc1ccc(Cl)c(Nc2nc3cc(C(=O)NCC(F)(F)C(F)(F)F)c(N4CCOCC4)cc3n2CC(F)F)c1Cl [Example 72] | 4 nM | 4 nM | – | –
21 | CN(CC(F)F)c1cc2c(cc1C(=O)Nc1ccc(OC(F)(F)F)cc1)nc(Nc1c(Cl)ccc(CNC(=O)C(C)(C)C)c1Cl)n2C [Example 137] | 3 nM | < 1 nM | – | –
22 | CN(CC(N)=O)c1cc2c(cc1C(=O)N[C@H]1CC[C@H](C(F)(F)F)CC1)nc(Nc1c(Cl)ccc(CNC(=O)C(C)(C)F)c1Cl)n2C [Example 111] | 2 nM | 22 nM | – | –
23 | CN(CC(C)(C)O)c1cc2c(cc1C(=O)N[C@H]1CC[C@H](C(F)(F)F)CC1)nc(Nc1c(Cl)ccc(CNC(=O)C(C)(C)C)c1Cl)n2C [Example 109] | 2 nM | 1 nM | – | –
24 | CC(C)(C)C(=O)NCc1ccc(Cl)c(Nc2nc3cc(C(=O)N[C@H]4CC[C@H](C(F)(F)F)CC4)c(N4CCC(C(F)(F)F)CC4)cc3n2CC(F)F)c1Cl [Example 75] | 1 nM | 2 nM | – | –
25 | Cn1c(Nc2c(Cl)ccc(CNC(=O)C(C)(C)C)c2Cl)nc2cc(C(=O)N[C@H]3CC[C@H](C(F)(F)F)CC3)c(N3CC4CCC4C3)cc21 (stereo partly drawn) [Example 122] | 3 nM | 1 nM | – | –
26 | Cn1c(Nc2c(Cl)ccc(CNC(=O)[C@@](C)(O)C(F)(F)F)c2Cl)nc2cc(C(=O)Nc3cccc(C(F)(F)F)n3)c(N3CCC(C(F)(F)F)CC3)cc21 [Example 243] | 2.9 nM | 4.5 nM | – | –
27 | CC(C)(F)C(=O)NCc1ccc(Cl)c(Nc2nc3cc(C(=O)N[C@H]4CC[C@H](C(F)(F)F)CC4)c(N4CCC(O)(C(F)(F)F)CC4)cc3n2CC(F)F)c1Cl [Example 80] | 2 nM | 1 nM | – | –
28 | Cn1c(Nc2c(Cl)ccc(CNC(=O)C(C)(C)C)c2Cl)nc2cc(C(=O)NC3CCN(CC(F)(F)F)CC3)c(N3CCC(C(F)(F)F)CC3)cc21 [Example 59] | 4 nM | < 1 nM | – | –
29 | CN(c1ccc(F)c(Cl)c1)c1cc2c(cc1C(=O)NCC(F)(F)F)nc(Nc1c(Cl)ccc(CNC(=O)C(C)(C)C)c1Cl)n2C [Example 31] | 4 nM | 33 nM | – | –
30 | CN(c1cc2c(cc1C(=O)N[C@H]1CC[C@H](C(F)(F)F)CC1)nc(Nc1c(Cl)ccc(CNC(=O)C(C)(C)C)c1Cl)n2C)C1CCSC1 (stereo partly drawn) [Example 117, N-(trans-4-trifluoromethyl-cyclohexyl)-2-{2,6-dichloro-3-[(2,2-dimethyl-propionylamino)-methyl]-phenylamino}-6-[N-methyl-N-(tetrahydro-thiophen-3-yl)-amino]-1-methyl-1H-benzimidazole-5-carboxylic acid amide] | 2 nM | 2 nM | – | –
31 | Cn1c(Nc2c(Cl)ccc(CNC(=O)C(C)(C)C)c2Cl)nc2cc(C(=O)N[C@H]3CC[C@H](C(F)(F)F)CC3)c(N3CCNC(C(F)(F)F)C3)cc21 (stereo partly drawn) [Example 131] | 2 nM | 1 nM | – | –
32 | Cn1c(Nc2c(Cl)ccc(CNC(=O)C(C)(C)F)c2Cl)nc2cc(C(=O)NCCC(F)(F)F)c(N3CCCC(C(F)(F)F)C3)cc21 (stereo not drawn) [Example 150] | 2 nM | 2 nM | – | –
33 | Cn1c(Nc2c(Cl)ccc(CNC(=O)C(C)(C)C(F)(F)F)c2Cl)nc2cc(C(=O)Nc3ccc(OC(F)(F)F)cc3)c(N3CCC(C(F)(F)F)CC3)cc21 [Example 238] | 2.2 nM | 2 nM | – | –
34 | Cn1c(Nc2c(Cl)ccc(CNC(=O)C(C)(C)C(F)(F)F)c2Cl)nc2cc(C(=O)Nc3ccc(OC(F)(F)F)cc3)c(N3CC[C@@H](F)C3)cc21 [Example 240] | 4.9 nM | 2 nM | – | –
35 | Cn1c(Nc2c(Cl)ccc(CNC(=O)C(C)(C)F)c2Cl)nc2cc(C(=O)NCCC(F)(F)F)c(N3CCC(C(F)(F)F)CC3)cc21 [Example 260] | 4 nM | 2 nM | – | –
36 | Cn1c(Nc2c(Cl)ccc(CNC(=O)C(C)(C)F)c2Cl)nc2cc(C(=O)N[C@H]3CC[C@H](C(F)(F)F)CC3)c(N3CCC(C(F)(F)F)CC3)cc21 [Example 249] | 4.2 nM | 6 nM | – | –
37 | CN(c1cc2c(cc1C(=O)N[C@H]1CC[C@H](C(F)(F)F)CC1)nc(Nc1c(Cl)ccc(CNC(=O)C(C)(C)C)c1Cl)n2C)C1CC[S+]([O-])C1 (stereo partly drawn) [Example 118, N-(trans-4-Trifluoromethyl-cyclohexyl)-2-{2,6-dichloro-3-[(2,2-dimethyl-propionylamino)-methyl]-phenylamino}-6-[N-methyl-N-(1-oxo-tetrahydro-thiophen-3-yl)-amino]-1-methyl-1H-benzimidazole-5-carboxylic acid amide] | 3 nM | 10 nM | – | –
38 | Cn1c(Nc2c(Cl)ccc(CNC(=O)C(C)(C)CO)c2Cl)nc2cc(C(=O)NCCC(F)(F)F)c(N3CCC(C(F)(F)F)CC3)cc21 [Example 175] | 4 nM | 7 nM | – | –
39 | CC1(O)CCN(c2cc3c(cc2C(=O)N[C@H]2CC[C@H](C(F)(F)F)CC2)nc(Nc2c(Cl)ccc(CNC(=O)C(C)(C)F)c2Cl)n3CC(F)F)CC1 [Example 78] | 2 nM | < 1 nM | – | –
